Experimental data as given in patent publication US12441726B2, “Compounds and uses thereof” (Foghorn Therapeutics Inc., priority 2020, dated 2025).

Legend:
BRG-1 = BRG-1 (Homo sapiens, UniProt P51532); test: ATPase catalytic activity assay (ADP-Glo), BRG-1; conditions: for Emax: 1 h, read-out: BRG1 Max % Inhibition, ADP-Glo, 30 nM BRG-1, 400 μM ATP
BRM = BRM (Homo sapiens, UniProt P51531); test: ATPase catalytic activity assay (ADP-Glo), BRM; conditions: 30 nM BRM, 400 μM ATP; for IC50: BRM ATPase: IC50 (uM)
BRM, sequence (P51531 whole entry): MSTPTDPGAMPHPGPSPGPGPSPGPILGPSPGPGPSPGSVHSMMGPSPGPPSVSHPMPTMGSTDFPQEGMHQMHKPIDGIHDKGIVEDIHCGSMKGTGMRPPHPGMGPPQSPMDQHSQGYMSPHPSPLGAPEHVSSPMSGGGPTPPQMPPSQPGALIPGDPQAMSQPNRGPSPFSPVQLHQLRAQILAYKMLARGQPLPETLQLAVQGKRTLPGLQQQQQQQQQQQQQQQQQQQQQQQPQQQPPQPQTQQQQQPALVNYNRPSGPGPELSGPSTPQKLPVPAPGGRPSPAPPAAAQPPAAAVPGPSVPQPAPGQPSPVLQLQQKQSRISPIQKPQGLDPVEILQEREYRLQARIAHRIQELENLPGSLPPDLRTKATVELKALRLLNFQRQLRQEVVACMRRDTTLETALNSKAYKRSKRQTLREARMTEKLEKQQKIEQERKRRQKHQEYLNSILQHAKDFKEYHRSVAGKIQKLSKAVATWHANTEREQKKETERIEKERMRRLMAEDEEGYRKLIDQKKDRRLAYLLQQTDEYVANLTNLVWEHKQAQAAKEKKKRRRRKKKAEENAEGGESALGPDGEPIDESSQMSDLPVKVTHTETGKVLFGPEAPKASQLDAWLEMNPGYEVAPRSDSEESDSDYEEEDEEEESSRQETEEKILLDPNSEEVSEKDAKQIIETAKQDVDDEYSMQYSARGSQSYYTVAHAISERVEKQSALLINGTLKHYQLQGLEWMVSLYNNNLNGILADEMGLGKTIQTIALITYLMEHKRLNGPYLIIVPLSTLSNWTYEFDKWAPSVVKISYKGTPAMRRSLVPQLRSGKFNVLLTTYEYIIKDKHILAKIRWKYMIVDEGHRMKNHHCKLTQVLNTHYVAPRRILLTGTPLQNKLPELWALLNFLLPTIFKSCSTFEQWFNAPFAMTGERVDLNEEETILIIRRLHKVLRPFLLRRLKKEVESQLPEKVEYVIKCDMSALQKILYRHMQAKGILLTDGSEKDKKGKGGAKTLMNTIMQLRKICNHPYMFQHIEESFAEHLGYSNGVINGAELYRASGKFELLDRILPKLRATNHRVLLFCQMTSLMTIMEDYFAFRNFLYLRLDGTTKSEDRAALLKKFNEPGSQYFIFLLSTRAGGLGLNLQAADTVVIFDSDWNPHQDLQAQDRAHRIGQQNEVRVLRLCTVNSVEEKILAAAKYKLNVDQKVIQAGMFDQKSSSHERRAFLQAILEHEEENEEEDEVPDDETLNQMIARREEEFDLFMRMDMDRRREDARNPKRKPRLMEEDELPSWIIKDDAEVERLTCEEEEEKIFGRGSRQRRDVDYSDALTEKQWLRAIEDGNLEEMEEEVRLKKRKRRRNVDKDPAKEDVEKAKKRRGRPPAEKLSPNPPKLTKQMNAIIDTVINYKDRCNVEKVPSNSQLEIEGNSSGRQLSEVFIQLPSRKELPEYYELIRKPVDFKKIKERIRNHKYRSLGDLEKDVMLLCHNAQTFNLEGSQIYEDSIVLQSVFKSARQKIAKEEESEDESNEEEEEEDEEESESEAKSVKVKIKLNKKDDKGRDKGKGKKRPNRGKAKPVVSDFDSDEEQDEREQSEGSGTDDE

BRG-1, sequence (P51532 whole entry): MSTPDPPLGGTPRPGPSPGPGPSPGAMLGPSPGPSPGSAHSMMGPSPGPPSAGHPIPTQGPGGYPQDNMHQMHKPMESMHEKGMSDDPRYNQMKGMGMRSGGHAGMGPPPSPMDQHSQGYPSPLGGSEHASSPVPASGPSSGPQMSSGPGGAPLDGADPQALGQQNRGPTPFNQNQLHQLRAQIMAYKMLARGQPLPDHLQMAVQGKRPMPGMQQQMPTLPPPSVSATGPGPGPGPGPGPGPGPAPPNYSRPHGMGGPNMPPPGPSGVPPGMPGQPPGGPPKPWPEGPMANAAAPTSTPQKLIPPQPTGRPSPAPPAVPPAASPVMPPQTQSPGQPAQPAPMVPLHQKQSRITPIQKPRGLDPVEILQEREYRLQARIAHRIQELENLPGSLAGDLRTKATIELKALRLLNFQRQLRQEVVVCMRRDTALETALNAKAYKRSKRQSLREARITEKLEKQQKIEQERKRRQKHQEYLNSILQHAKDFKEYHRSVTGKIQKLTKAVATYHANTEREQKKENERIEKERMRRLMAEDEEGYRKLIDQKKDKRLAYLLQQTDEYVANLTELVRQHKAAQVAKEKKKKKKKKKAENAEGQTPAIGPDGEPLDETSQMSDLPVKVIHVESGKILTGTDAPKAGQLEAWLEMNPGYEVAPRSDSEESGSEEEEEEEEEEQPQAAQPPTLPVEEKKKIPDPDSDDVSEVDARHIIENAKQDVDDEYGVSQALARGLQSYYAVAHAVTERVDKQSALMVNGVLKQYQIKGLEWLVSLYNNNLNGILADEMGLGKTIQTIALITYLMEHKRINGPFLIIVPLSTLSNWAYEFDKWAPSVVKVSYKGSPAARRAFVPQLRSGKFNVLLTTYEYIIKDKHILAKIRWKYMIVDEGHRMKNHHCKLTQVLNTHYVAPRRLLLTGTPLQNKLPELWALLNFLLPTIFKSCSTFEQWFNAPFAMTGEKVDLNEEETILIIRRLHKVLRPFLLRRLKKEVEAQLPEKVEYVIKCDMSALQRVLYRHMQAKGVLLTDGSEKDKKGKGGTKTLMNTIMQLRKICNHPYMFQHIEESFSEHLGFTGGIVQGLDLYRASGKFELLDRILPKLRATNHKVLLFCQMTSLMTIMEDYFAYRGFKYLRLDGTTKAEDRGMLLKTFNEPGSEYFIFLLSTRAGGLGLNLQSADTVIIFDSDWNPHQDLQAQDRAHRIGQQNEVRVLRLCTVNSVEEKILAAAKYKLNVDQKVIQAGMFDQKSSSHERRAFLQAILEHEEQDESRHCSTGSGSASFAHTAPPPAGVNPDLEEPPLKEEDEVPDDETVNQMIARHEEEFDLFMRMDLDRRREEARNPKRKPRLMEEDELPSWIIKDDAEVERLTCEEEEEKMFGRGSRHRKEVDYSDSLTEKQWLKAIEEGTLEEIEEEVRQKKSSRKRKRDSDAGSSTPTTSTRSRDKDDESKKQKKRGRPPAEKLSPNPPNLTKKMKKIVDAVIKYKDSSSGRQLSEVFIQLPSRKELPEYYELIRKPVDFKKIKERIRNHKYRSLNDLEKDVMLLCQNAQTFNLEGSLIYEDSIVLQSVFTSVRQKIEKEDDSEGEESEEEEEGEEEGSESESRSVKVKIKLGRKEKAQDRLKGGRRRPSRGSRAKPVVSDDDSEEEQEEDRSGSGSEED

Compound | IC50 (BRG-1) | Emax (BRG-1) | BRM Max % Inhibition (BRM) | IC50 (BRM)
C[C@@H](O)c1cccc(-c2ccc3cnc(CNC(=O)c4cnc5c(c4)[C@](C)(F)COC5)cc3n2)n1 [Compound 212] | > 1000 nM | 39% | 89% | 0.1 to 0.5 µM
O=C(NCc1cc2nc(-c3ccccc3)ccc2cn1)c1cccc(C2(C(F)F)COC2)c1 [Compound 100] | > 1000 nM | 25% | 83% | 0.5 to 1 µM
C[C@@]1(C#N)COCc2ccc(C(=O)NCc3cc(C#Cc4ccccc4)c(F)cn3)cc21 [Compound 20] | > 1000 nM | 41% | 83% | 0.5 to 1 µM
C[C@@]1(C#N)COCc2ccc(C(=O)NCc3nccc(N4CCc5ccccc5C4)c3F)cc21 [Compound 66] | 500 to 1000 nM | 76% | 99% | 0.1 to 0.5 µM
C[C@@]1(C#N)COCc2ccc(C(=O)NCc3cc4nc(-c5ccnc(N6CC7CC(C6)O7)n5)ccc4cn3)cc21 [Compound 284] | 100 to 500 nM | 93% | 99% | < 0.1 µM
C[C@@]1(C#N)COCc2ccc(C(=O)NCc3cc(OCc4cccc(C#N)c4)ccn3)cc21 [Compound 65] | > 1000 nM | 39% | 90% | 0.1 to 0.5 µM
C[C@@]1(F)COCc2ccc(C(=O)NCc3cc4nc(-c5ccnc(C6CC6)n5)sc4cn3)cc21 [Compound 199] | > 1000 nM | 14% | 85% | 0.1 to 0.5 µM
C[C@@]1(C#N)COCc2ccc(C(=O)NCc3cc(N4CC5(CN(c6ccccc6)C5)C4)ccn3)cc21 [Compound 10] | > 1000 nM | 30% | 71% | > 1 µM
COc1nn(C2CC2(F)F)cc1-c1ccc2cnc(CNC(=O)c3ccc4c(c3)[C@](C)(C#N)COC4)cc2n1 (some centres unmarked) [Compound 140] | 500 to 1000 nM | 48% | 94% | 0.1 to 0.5 µM
C[C@@]1(C#N)COCc2ccc(C(=O)NCc3cc(N4CC(c5ccccc5)C4)cnn3)cc21 [Compound 46] | > 1000 nM | 29% | 78% | > 1 µM
COc1cnn(C)c1-c1ccc2cnc(CNC(=O)c3ccc4c(c3)[C@](C)(C#N)COC4)cc2n1 [Compound 297] | 500 to 1000 nM | 66% | 96% | 0.1 to 0.5 µM
C[C@@]1(C#N)COCc2ccc(C(=O)NCc3cc4nc(-c5cccnc5)ccc4cn3)cc21 [Compound 114] | > 1000 nM | 42% | 86% | 0.5 to 1 µM
C[C@@]1(C#N)COCc2ccc(C(=O)NCc3cc4nc(-c5cn(C6COC6)nc5C5CC5)ccc4cn3)cc21 [Compound 186] | 500 to 1000 nM | 66% | 97% | < 0.1 µM
COc1nn(C)cc1-c1ccc2cnc(CNC(=O)c3cnc4c(c3)[C@](C)(F)COC4)cc2n1 [Compound 334] | 500 to 1000 nM | 61% | 96% | 0.1 to 0.5 µM
C[C@@]1(F)COCc2ccc(C(=O)NCc3cc4nc(-c5ccc(=O)n(CC(F)F)n5)ccc4cn3)cc21 [Compound 318] | 500 to 1000 nM | 55% | 107% | 0.1 to 0.5 µM
C[C@@]1(C#N)COCc2ccc(C(=O)NCc3cc(N4CCC[C@H](c5ccccc5)C4)ccn3)cc21 [Compound 55] | > 1000 nM | 33% | 82% | 0.1 to 0.5 µM
Cc1cnc(CNC(=O)c2ccc3c(c2)[C@](C)(C#N)COC3)cc1C#Cc1ccccc1 [Compound 15] | > 1000 nM | 64% | 94% | 0.5 to 1 µM
CN(C)c1cccn(-c2ccc3cnc(CNC(=O)c4ccc5c(c4)[C@](C)(C#N)COC5)cc3n2)c1=O [Compound 281] | > 1000 nM | 48% | 92% | 0.1 to 0.5 µM
C[C@@]1(C#N)COCc2ccc(C(=O)NCc3cc4nc(-c5cccc(N6CCCC6)n5)ccc4cn3)cc21 [Compound 361] | > 1000 nM | 98% | 98% | < 0.1 µM
C[C@@]1(C#N)COCc2ccc(C(=O)NCc3cc4nn(-c5cccc(N6CCC6)n5)cc4cn3)cc21 [Compound 166] | > 1000 nM | 40% | 91% | 0.1 to 0.5 µM

Further lines, results first:

IC50 (BRG-1) | Emax (BRG-1) | BRM Max % Inhibition (BRM) | IC50 (BRM) | Compound
100 to 500 nM | 92% | 98% | < 0.1 µM | C[C@@]1(C#N)COCc2ccc(C(=O)NCc3cc4nc(-c5ccnc(N6CC7CC6C7)n5)ccc4cn3)cc21 [Compound 285]
100 to 500 nM | 91% | 98% | < 0.1 µM | C[C@@]1(C#N)COCc2ccc(C(=O)NCc3nccc(N4Cc5ccccc5C4)c3F)cc21 [Compound 68]
100 to 500 nM | 85% | 99% | < 0.1 µM | C[C@@]1(C#N)COCc2ccc(C(=O)NCc3ncc4ccc(-c5cncc(C6CC6)n5)cc4n3)cc21 [Compound 206]
100 to 500 nM | 75% | 96% | 0.1 to 0.5 µM | C[C@@]1(C#N)COCc2ccc(C(=O)NCc3cc4c(cn3)CCN(c3ccnc(N5CCC5)c3F)C4)cc21 [Compound 258]
100 to 500 nM | 89% | 98% | < 0.1 µM | C[C@@]1(C#N)COCc2ccc(C(=O)NCc3cc4nc(-c5ccnc(C6CCC6)n5)ccc4cn3)cc21 [Compound 420]
100 to 500 nM | 89% | 101% | < 0.1 µM | C[C@@]1(F)COCc2ccc(C(=O)NCc3cc4nc(-c5cccc(C6CC6)n5)ccc4nn3)cc21 [Compound 240]
100 to 500 nM | 80% | 98% | 0.1 to 0.5 µM | COc1cc(N2CCC2)ccc1-c1ccc2cnc(CNC(=O)c3ccc4c(c3)[C@](C)(C#N)COC4)cc2n1 [Compound 146]
< 100 nM | 97% | 99% | < 0.1 µM | Cc1cc2c(-c3ccc4cnc(CNC(=O)c5ccc6c(c5)[C@](C)(C#N)COC6)cc4n3)cccc2n1C [Compound 172]
100 to 500 nM | 91% | 99% | < 0.1 µM | C[C@@]1(C#N)COCc2ccc(C(=O)NCc3cc4nc(-c5ccnc(N6CC7(COC7)C6)n5)ccc4cn3)cc21 [Compound 403]
100 to 500 nM | 88% | 99% | < 0.1 µM | C[C@@]1(C#N)COCc2ncc(C(=O)NCc3cc4nc(-c5cncc(C6CC6)n5)ccc4cn3)cc21 [Compound 221]
100 to 500 nM | 95% | 100% | < 0.1 µM | C[C@@]1(C#N)COCc2ncc(C(=O)NCc3cc4nc(-c5cc(F)cc(N6CCC6)c5)ccc4cn3)cc21 [Compound 487]
100 to 500 nM | 88% | 98% | < 0.1 µM | COc1ccc(F)cc1-c1ccc2cnc(CNC(=O)c3ccc4c(c3)[C@](C)(C#N)COC4)cc2n1 [Compound 517]
